# Test system: Peronospora parasitica
# Assay: In vivo preventive test on Peronospora parasitica (Crucifer downy mildew)
# Settings: Hyaloperonospora parasitica, in Brassica oleracea, 120 h, 31 ppm of active ingredient, cabbage, evaluated 5 days after inoculation, read-out: efficacy
# Method: (§1) The tested active ingredients were prepared by homogenization in a mixture of acetone/Dimethyl sulfoxide/Tween®, and then diluted with water to obtain the desired active material concentration. The young plants of cabbage were treated by spraying the active ingredient prepared as described above. Control plants were treated only with an aqueous solution of acetone/Dimethyl sulfoxide/Tween®.
# After 72 hours, the plants were contaminated by spraying the leaves with an aqueous suspension of Peronospora parasitica spores. The contaminated cabbage plants were incubated for 5 days at 20° C. and at 100% relative humidity.
# The test was evaluated 5 days after the inoculation. 0% means an efficacy which corresponds to that of the control plants while an efficacy of 100% means that no disease was observed.
# Compounds CMP2 and CMP3 were tested in an in vivo preventive test on Peronospora parasitica (Crucifer downy mildew) in the same conditions as described in Example G.
row,Compound,pest or weed control at 31 ppm [%]
1,CCOC(=O)C(C)N(OC)C(=O)c1sc(Cl)c(Cl)c1Cl (stereo not shown) [I.108],90 to 100
2,COC(=O)C(C)N(OC)C(=O)c1sc(Cl)c(Cl)c1Cl (stereo not shown) [I.109],90 to 100

# Same assay, conditions: Hyaloperonospora parasitica, in Brassica oleracea, 120 h, 125 ppm of active ingredient, cabbage, evaluated 5 days after inoculation, read-out: efficacy
row,Compound,pest or weed control at 125 ppm [%]
1,CCOC(=O)C(C)N(OC)C(=O)c1sc(Cl)c(Cl)c1Cl (stereo not shown) [I.108],90 to 100
2,COC(=O)C(C)N(OC)C(=O)c1sc(Cl)c(Cl)c1Cl (stereo not shown) [I.109],90 to 100

# Same assay, conditions: Hyaloperonospora parasitica, in Brassica oleracea, 120 h, 500 ppm of active ingredient, cabbage, evaluated 5 days after inoculation, read-out: efficacy
row,Compound,pest or weed control at 500 ppm [%]
1,CCOC(=O)C(C)N(OC)C(=O)c1sc(Cl)c(Cl)c1Cl (stereo not shown) [I.108],90 to 100
2,COC(=O)C(C)N(OC)C(=O)c1sc(Cl)c(Cl)c1Cl (stereo not shown) [I.109],90 to 100

# Test system: Xanthomonas campestris pv. campestris
# Assay: In vivo preventive test on Xanthomonas campestris pv. campestris (black rot on cabbage)
# Settings: 31 ppm of active ingredient, evaluated 8 or 10 days after inoculation, read-out: efficacy
# Method: The tested active ingredients were prepared by homogenization in a mixture of acetone/Dimethyl sulfoxide/Tween®, and then diluted with water to obtain the desired active material concentration.
# The young plants of cabbage were treated by spraying the active ingredient prepared as described above. Control plants were treated only with an aqueous solution of acetone/Dimethyl sulfoxide/Tween®.
# After 72 hours, the plants were contaminated by spraying the leaves with an aqueous bacteria suspension of Xanthomonas campestris pv. campestris. The contaminated cabbage plants were incubated for 8 or 10 days at 27° C. at 95% relative humidity.
# The test was evaluated 8 or 10 days after the inoculation. 0% means an efficacy which corresponds to that of the control plants while an efficacy of 100% means that no disease was observed. […]
# Compounds CMP1, CMP2, CMP3 and CMP4 were tested in an in vivo preventive test on Xanthomonas campestris pv. campestris (black rot on cabbage) in the same conditions as described in Example H.
row,Compound,pest or weed control at 31 ppm [%]
1,CCOC(=O)C(C)N(OC)C(=O)c1sc(Cl)c(Cl)c1Cl (stereo not shown) [I.108],90 to 100

# Same assay, conditions: 125 ppm of active ingredient, evaluated 8 or 10 days after inoculation, read-out: efficacy
row,Compound,pest or weed control at 125 ppm [%]
1,COC(=O)C(C)N(OC)C(=O)c1sc(Cl)c(Cl)c1Cl (stereo not shown) [I.109],70 to 79

# Test system: not listed separately
# Assay: LogP by HPLC on reversed phase columns (EEC directive 79/831 Annex V.A8)
# Assay type: physicochemical
# Settings: reversed phase HPLC columns, method [a]: LC-UV, in an acidic range, with 0.1% formic acid in water and acetonitrile as eluent (linear gradient from 10% to 95% acetonitrile)
# Method: In the above tables, measurement of LogP values was performed according to EEC directive 79/831 Annex V.A8 by HPLC (High Performance Liquid Chromatography) on reversed phase columns with the following methods: • ^[a]
# Calibration was done with straight-chain alkan2-ones (with 3 to 16 carbon atoms) with known LogP values (measurement of LogP values using retention times with linear interpolation between successive alkanones). Lambda-max-values were determined using UV-spectra from 200 nm to 400 nm and the peak values of the chromatographic signals.
row,Compound,chromatographic logP
1,CCOC(=O)C(C)N(OC)C(=O)c1sc(Cl)c(Cl)c1Cl (stereo not shown) [I.108],4.15
2,COC(=O)C(C)N(OC)C(=O)c1sc(Cl)c(Cl)c1Cl (stereo not shown) [I.109],3.72

# Test system: Uromyces appendiculatus
# Assay: In vivo preventive test on Uromyces appendiculatus (bean rust)
# Settings: 240 h, 125 ppm of active ingredient, evaluated 10 days after inoculation, read-out: efficacy
# Method: as §1, with “bean” for “cabbage”
# (§2) After 72 hours, the plants were contaminated by spraying the leaves with an aqueous suspension of Uromyces appendiculatus spores. The contaminated bean plants were incubated for 24 hours at 20° C. and at 100% relative humidity and then for 9 days at 20° C. and at 70-80% relative humidity. The test was evaluated 10 days after the inoculation. 0% means an efficacy which corresponds to that of the control plants while an efficacy of 100% means that no disease was observed.
# Compounds CMP5 and CMP6 were tested in an in vivo preventive test on Uromyces appendiculatus (bean rust) in the same conditions as described in Example I.
row,Compound,pest or weed control at 125 ppm [%]
1,CCOC(=O)C(C)N(OC)C(=O)c1sc(Cl)c(Cl)c1Cl (stereo not shown) [I.108],90 to 100
2,COC(=O)C(C)N(OC)C(=O)c1sc(Cl)c(Cl)c1Cl (stereo not shown) [I.109],90 to 100

# Same assay, conditions: 240 h, 500 ppm of active ingredient, evaluated 10 days after inoculation, read-out: efficacy
row,Compound,pest or weed control at 500 ppm [%]
1,CCOC(=O)C(C)N(OC)C(=O)c1sc(Cl)c(Cl)c1Cl (stereo not shown) [I.108],90 to 100
2,COC(=O)C(C)N(OC)C(=O)c1sc(Cl)c(Cl)c1Cl (stereo not shown) [I.109],90 to 100

# Test system: Colletotrichum lindemuthianum
# Assay: In vivo preventive test on Colletotrichum lindemuthianum (Antrachnose on bean)
# Settings: 144 h, 500 ppm of active ingredient, inoculation 72 h after spraying, evaluated 6 days after inoculation, read-out: efficacy
# Method: as §1, with “bean” for “cabbage”
# as §2, with “of Colletotrichum lindemuthianum” for “of Uromyces appendiculatus”, “for 5” for “for 9”, “at 90%” for “at 70-80%”, “evaluated 6” for “evaluated 10”
# Compound CMP1 was tested in an in vivo preventive test on Colletotrichum lindemuthianum (Antrachnose on bean) in the same conditions as described in Example F.
row,Compound,pest or weed control at 500 ppm [%]
1,CCOC(=O)C(C)N(OC)C(=O)c1sc(Cl)c(Cl)c1Cl (stereo not shown) [I.108],90 to 100
2,COC(=O)C(C)N(OC)C(=O)c1sc(Cl)c(Cl)c1Cl (stereo not shown) [I.109],90 to 100

# Test system: Pseudomonas syringae pv. tomato
# Assay: In vivo preventive test on Pseudomonas syringae pv. tomato (bacterial speck on tomato)
# Settings: 500 ppm of active ingredient, evaluated 5 or 6 days after inoculation, read-out: efficacy
# Method: as §1, with “tomato” for “cabbage”
# After 72 hours, the plants were contaminated by spraying the leaves with an aqueous bacteria suspension of Pseudomonas syringae pv. tomato. The contaminated tomato plants were incubated for 4 days in saturated atmosphere at 22° C. day/20° C. night—70% HR and then for 1 or 2 days at 22° C. day/20° C. night at 70-80% relative humidity.
# The test was evaluated 5 or 6 days after the inoculation. 0% means an efficacy which corresponds to that of the control plants while an efficacy of 100% means that no disease was observed.
# Compounds CMP1 and CMP4 were tested in an in vivo preventive test on Pseudomonas syringae pv. tomato (bacterial speck on tomato) in the same conditions as described in Example J.
row,Compound,pest or weed control at 500 ppm [%]
1,CCOC(=O)C(C)N(OC)C(=O)c1sc(Cl)c(Cl)c1Cl (stereo not shown) [I.108],80 to 89
2,COC(=O)C(C)N(OC)C(=O)c1sc(Cl)c(Cl)c1Cl (stereo not shown) [I.109],80 to 89

# Test system: salicylate responsive promoter sequence of the PR1 (pathogenesis-related protein I) gene (AT2G14610)
# Assay: Induction of defense gene expression in Arabidopsis thaliana (PR1 promoter-GFP reporter plants)
# Assay type: in vivo
# Settings: Arabidopsis thaliana, 72 h; 75 ppm of compound; 3rd day after spraying; mock treated leaves set as 1.00; read-out: relative fluorescence value
# Method: Arabidopsis thaliana reporter plants containing the coding sequence of a green fluorescent protein (GFP) linked to the salicylate responsive promoter sequence of the PR1 (pathogenesis-related protein I) gene (AT2G14610) were grown for five days and then sprayed with compounds. On the 3rd day after spraying, plant fluorescence was assessed with a MacroFluo instrument from Leica Microsystems (Wetzlar, Germany). Fluorescences were quantified with the Meta-Morph Microscopy Automation & Image Analysis Software (Molecular Devices, Sunnyvale, Calif., United States). Background fluorescence in mock treated leaves was set as 1.00.
row,Compound,fold induction at 75 ppm
1,CCOC(=O)C(C)N(OC)C(=O)c1sc(Cl)c(Cl)c1Cl (stereo not shown) [I.108],> 2
2,COC(=O)C(C)N(OC)C(=O)c1sc(Cl)c(Cl)c1Cl (stereo not shown) [I.109],> 2

# Same assay, conditions: Arabidopsis thaliana, 72 h; 300 ppm; 3rd day after spraying; mock treated leaves set as 1.00; read-out: relative fluorescence value
row,Compound,fold induction at 300 ppm
1,CCOC(=O)C(C)N(OC)C(=O)c1sc(Cl)c(Cl)c1Cl (stereo not shown) [I.108],> 2
2,COC(=O)C(C)N(OC)C(=O)c1sc(Cl)c(Cl)c1Cl (stereo not shown) [I.109],> 2

# Reference: patent US20230055705A1, “SUBSTITUTED THIOPHENE CARBOXAMIDES AND DERIVATIVES THEREOF” (Bayer Aktiengesellschaft, priority 2019, published 2023)
